Like-named read-outs stand apart in the source and are kept apart here.
What was measured:
[1] = Blood-Brain Barrier Penetration (concentration in plasma and brain); format: in vivo, Sprague Dawley rats; conditions: male, Sprague Dawley, rat; for concentration at 60 min: male Sprague Dawley rats; for concentration at 120 min: 120 min (brain)
Procedure: The blood-brain barrier penetration of Compound 78 was examined in male Sprague Dawley rats following i.v. (3 mg/kg) or oral (10 mg/kg) administration.
The i.v. formulation consisted of a 1 mg/mL dose in vehicle (10% solutol in D5W at pH 3) with plasma samples drawn at 0.25 hours, 0.5 hours and 1 hour after administration.
The oral (p.o) formulation consisted of a 1 mg/mL dose in vehicle (0.5% methylcellulose) with plasma samples drawn at 0.5 hours, 1 hour and 2 hours after administration.
The plasma samples (0.5 ml) were collected and centrifuged (2000 rpm, 3 min), then stored at −60° C. until LC-MS/MS analysis. Brain samples were collected immediately after the last blood sample collection. The samples were rinsed with 0.9% NaCl, patted dry, then weighed and placed in Falcon 14 mL polypropylene round-bottom tubes containing 3 mL methanol. The methanolic mixtures were homogenized with an OMNI TH115 homogenizer then centrifuged for 10 minutes at 7,000 rpm. The supernatant was removed and stored frozen in 15 mL polyethylene tubes at −60° C. until LC-MS/MS analysis.

[2] = tested on: BT474 breast carcinoma; assay: In vitro cell proliferation inhibition, BT474; format: cell-based; conditions: Homo sapiens, BT-474; BT474 cells, 14C-thymidine incorporation; read-out: IC50 BT474
Excerpt: (§1) The ability of a test compound to inhibit unregulated in vitro cell proliferation may be determined by measuring incorporation of ^14C-labelled thymidine into newly synthesized DNA within cell lines derived from carcinomas originating from several tissues. Accordingly, the effect of a test compound on proliferation of cells with a variety of phenotypes may be determined.
(§2) Carcinoma cell lines used include the HeLa cervical adenocarcinoma from the American Type Culture Collection (ATCC Cat. #CCL2), SK-OV-3 ovarian carcinoma (ATCC Cat. #HTB-77), MCF-7 breast carcinoma (ATCC Cat. #HTB-22), BT474 breast carcinoma (ATCC Cat. #HTB-20), SKBR3 breast carcinoma (ATCC Cat. #HTB-30), A431 epidermoid carcinoma (ATCC Cat. #CRL-1555) and NCI-N87 gastric carcinoma (ATCC Cat. #CRL-5822).
(§3) The carcinoma cells are trypsinized and counted. The cells (3000-8000 count) are added to each well of a 96-well CytoStar tissue culture treated scintillating microplate (Amersham #RPNQ0160) in complete medium (100 μL) and the plate is then incubated in complete medium for 24 hrs at 37° C. in an inert atmosphere containing 5% CO2.
(§4) Test compound (1 μL) in 100% DMSO is added to the plate test-wells with DMSO only added to control-wells. The plate is incubated in complete medium for a second 24 hr period at 37° C. in an atmosphere containing 5% CO2.
(§5) An aliquot of a solution of Methyl ^14C-thymidine (56 mC/mmol) (NEN #NEC568 or Amersham #CFA532) and complete medium (20 μL to provide 0.2 μCi/well) is then added to each well and the plate is incubated for a third 24 hr period at 37° C. in an atmosphere containing 5% CO2.
(§6) The plate contents are then discarded, the plate is washed twice with PBS (200 μL) and then PBS (200 μL) is added to each well. The plate is sealed and the degree of methyl ^14C-thymidine incorporation is quantified on a Packard Top Count.
(§7) Cell proliferation of the Hela cell line was measured using the ATP-Lite method as described in the ATP Lite Kit (Perkin-Elmer Kit Number 6106941) or the C^14 method as described above. Cell proliferation of the other cell lines was measured using the C^14 method.
(§8) The term “NT” means that the compound indicated was not tested in a particular cell line. The lack of such testing is not intended to imply a belief that the compound is not otherwise active in a particular cell line or any other cell line not tested.

[3] = target: T1, HER-2 (Homo sapiens, UniProt P04626); assay: HER-2 Kinase Assay; format: biochemical; conditions: read-out: HER2 IC50;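 note: HER2 kinase reaction read by scintillation counting, inhibition scaled between maximum and minimum signals set on each plate, IC50 from inhibition against log concentration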
T1 construct: purchased Proqinase (Freiburg, Germany)

[4] = tested on: SKBR3 breast carcinoma; assay: In vitro cell proliferation inhibition, SKBR3; format: cell-based; conditions: Homo sapiens, SK-BR-3; SKBR3 cells, 14C-thymidine incorporation; read-out: IC50 SKBR3
Excerpt: as §1, §2, §3, §4, §5, §6, §7, §8

[5] = tested on: NCI-N87 gastric carcinoma; assay: In vitro cell proliferation inhibition, NCI-N87; format: cell-based; conditions: Homo sapiens, NCI-N87; N87 cells, 14C-thymidine incorporation; read-out: IC50 N87
Excerpt: as §1, §2, §3, §4, §5, §6, §7, §8

[6] = tested on: SK-OV-3 ovarian carcinoma; assay: In vitro cell proliferation inhibition, SK-OV-3; format: cell-based; conditions: Homo sapiens; SK-OV-3 cells, 14C-thymidine incorporation
Excerpt: as §1, §2, §3, §4, §5, §6, §7, §8

[7] = tested on: MCF-7 breast carcinoma; assay: In vitro cell proliferation inhibition, MCF-7; format: cell-based; conditions: Homo sapiens, MCF7; MCF-7 cells, 14C-thymidine incorporation
Excerpt: as §1, §2, §3, §4, §5, §6, §7, §8

[8] = tested on: A431 epidermoid carcinoma; assay: In vitro cell proliferation inhibition, A431; format: cell-based; conditions: Homo sapiens, A-431; A431 cells, 14C-thymidine incorporation; read-out: IC50 A431
Excerpt: as §1, §2, §3, §4, §5, §6, §7, §8

[9] = tested on: HeLa cervical adenocarcinoma; assay: In vitro cell proliferation inhibition, HeLa; format: cell-based; conditions: Homo sapiens; HeLa cell line; ATP-Lite method or C14 thymidine method; read-out: HeLa IC50
Excerpt: as §1, §2, §3, §4, §5, §6, §7, §8

[10] = target: T2, EGFR (Homo sapiens, UniProt P00533); assay: EGFR Kinase Assay; format: biochemical;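 note: recombinant GST-tagged EGFR expressed in Sf9 cells, phosphorylating biotinylated polyGluTyr with γ-33P ATP on Streptavidin Flashplates, 1 h at 30 °C, scintillation counting, inhibition relative to plate maximum and minimum signals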
T2 construct: The intracellular portion of EGFR started at nucleotide 2189 (corresponding to amino acid 667) and ended at the termination codon; made in house; host or cells: Sf9 insect cells (baculovirus)

[11] = tested on: N87 gastric carcinoma cells; assay: N87 Human Tumor Xenograft Model; format: in vivo, nu/nu mice; conditions: treatment groups 5-10, 100 mg/kg oral once daily for 30 days
Excerpt: The N87 gastric carcinoma cell line overexpresses HER-2 as a result of gene amplification and forms tumors in nude mice (Kasprzyk P G, Song S U, Di Fiore P P, King C R, Therapy of an animal model of human gastric cancer using a combination of anti-erbB-2 monoclonal antibodies, Cancer Res., 1992, 52, 2771-2776).
Female nu/nu mice (Charles River; 8 to 9 weeks of age) were implanted subcutaneously with from 3×10^6 to 5×10^6 N87 gastric carcinoma cells (obtained from the American Type Culture Collection, ATCC Cat. #CRL-5822) in the flank. Animals were weighed twice weekly during the study and examined frequently.
Tumor size was monitored twice weekly and then daily as the neoplasms reached the target weight range (about 75 mg). Animals were pair-matched when tumors were in the 62 to 126 mg range (group mean tumor size: 70 to 74 mg). Estimated tumor weight was calculated using the formula: […]
A test compound was orally administered daily in the test treatment group after the tumor reached the target weight. For treatment group 1, the test compound was administered once daily for 35 days. For treatment group 2, the test compound was administered once daily for 30 days. For treatment group 3, each dose of test compound was administered once daily for 30 days. For treatment group 4, each dose of test compound was administered once daily for 36 days. For treatment group 5-10, the test compound was administered once daily for 30 days.
Tumor weight was measured daily for subjects (n=8) in the test group and the matched subjects (n=8) in the vehicle-treated group.
The tumor growth inhibition (in percent) was calculated on the last day of the study using the formula: […]
(§9) Statistical significance was evaluated by comparing the vehicle group to the test group using a two tailed Students t test. The term “NC” means that the P value for the treatment group indicated was not calculated. The lack of such calculation is not intended to imply a belief that the activity of the compound is not otherwise statistically significant in this particular cell line or in any other cell line not tested.

[12] = tested on: A431 epidermoid carcinoma cells; assay: A431 Human Tumor Xenograft Model; format: in vivo, nu/nu mice; conditions: treatment groups 5-10, 100 mg/kg oral once daily for 30 days
Excerpt: The A431 epidermoid carcinoma cell line overexpresses EGFR, activating signaling pathways responsible for driving the proliferation, invasion and survival of cancer cells and forming tumors in nude mice (Giard D J, Aaronson S A, Todaro G J, Arnstein P, Kersey J H, Dosik H, Parks W P, In vitro cultivation of human tumors: establishment of cell lines derived from a series of solid tumors, J. Natl. Cancer Inst., 1973, 51, 1417-1423; and, Kawamoto T, Sato J D, Le A, Polikoff J, Sato G H, Mendelsohn J, Growth stimulation of A431 cells by epidermal growth factor: identification of high-affinity receptors for epidermal growth factor by an anti-receptor monoclonal antibody, Proc. Natl. Acad. Sci. USA, 1983, 80, 1337-1341).
Female nu/nu mice (Charles River; 8 to 9 weeks of age) were implanted subcutaneously in the flank with 4×10^6 A431 epidermoid carcinoma cells (obtained from the American Type Culture Collection, ATCC Cat. #CRL-1555). Animals were weighed twice weekly during the study and examined frequently.
Tumor size was monitored twice weekly and then daily as the neoplasms reached the target weight range (about 75 mg). Animals were pair-matched when tumors were in the 62 to 126 mg range (group mean tumor size: 70 to 74 mg). Estimated tumor weight was calculated using the formula of Example 4.
A test compound was orally administered daily in the test treatment group after the tumor reached the target weight. For treatment groups 1 and 2, each dose of test compound was administered once daily for 25 days. For treatment group 3, each dose of test compound was administered twice daily for 25 days. For treatment group 4, the test compound was administered twice daily for 30 days. For treatment group 5-10, the test compound was administered once daily for 30 days.
as §9

T2 sequence (P00533 669-1210 limits assumed): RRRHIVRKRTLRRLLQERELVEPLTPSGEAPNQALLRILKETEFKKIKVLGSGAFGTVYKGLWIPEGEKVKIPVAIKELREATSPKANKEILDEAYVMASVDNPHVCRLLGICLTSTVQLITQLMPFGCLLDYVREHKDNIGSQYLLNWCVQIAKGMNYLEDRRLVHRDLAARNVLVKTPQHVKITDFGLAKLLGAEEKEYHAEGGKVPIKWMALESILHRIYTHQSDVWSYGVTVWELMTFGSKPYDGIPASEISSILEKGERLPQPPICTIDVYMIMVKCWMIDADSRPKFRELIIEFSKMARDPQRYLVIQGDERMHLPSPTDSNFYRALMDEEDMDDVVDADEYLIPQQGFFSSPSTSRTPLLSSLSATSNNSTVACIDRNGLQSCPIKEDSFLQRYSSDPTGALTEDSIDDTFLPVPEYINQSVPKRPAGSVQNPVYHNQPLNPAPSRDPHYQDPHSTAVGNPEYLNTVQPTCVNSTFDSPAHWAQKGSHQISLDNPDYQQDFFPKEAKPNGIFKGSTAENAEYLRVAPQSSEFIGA
T1 sequence (P04626 679-1255): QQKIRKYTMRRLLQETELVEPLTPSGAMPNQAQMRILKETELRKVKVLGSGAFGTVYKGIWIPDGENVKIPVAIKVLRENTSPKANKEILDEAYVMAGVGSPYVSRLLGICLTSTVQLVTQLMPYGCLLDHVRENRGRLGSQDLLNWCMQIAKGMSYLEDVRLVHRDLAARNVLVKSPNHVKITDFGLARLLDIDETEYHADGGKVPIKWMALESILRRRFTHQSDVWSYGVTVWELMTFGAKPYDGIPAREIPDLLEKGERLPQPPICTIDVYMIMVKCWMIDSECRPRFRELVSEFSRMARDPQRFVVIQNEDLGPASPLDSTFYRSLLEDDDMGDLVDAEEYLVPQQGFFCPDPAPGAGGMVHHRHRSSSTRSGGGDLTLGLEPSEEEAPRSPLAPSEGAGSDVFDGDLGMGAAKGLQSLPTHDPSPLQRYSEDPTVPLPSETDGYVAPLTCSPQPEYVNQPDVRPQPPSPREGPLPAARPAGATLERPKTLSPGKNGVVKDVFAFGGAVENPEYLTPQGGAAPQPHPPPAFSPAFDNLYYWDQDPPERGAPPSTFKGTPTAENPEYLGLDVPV

Row | SMILES | concentration at 60 min ([1]; brain, iv, 3 mg/kg, i.v. 3 mg/kg, 60 min (brain), read-out: Concentration in Brain, Mean ± SEM) | concentration at 120 min ([1]; brain, po, 10 mg/kg, p.o. 10 mg/kg, first of two lines so labelled, read-out: Concentration in Brain, Mean ± SEM) | concentration at 120 min ([1]; brain, po, 10 mg/kg, p.o. 10 mg/kg, second of two lines so labelled, read-out: Concentration in Brain, Mean ± SEM) | Kp at 1 h ([1]; brain/plasma, iv, i.v. 3 mg/kg, 60 min, read-out: Brain/Plasma Ratio) | Kp at 2 h ([1]; brain/plasma, po, p.o. 10 mg/kg, read-out: Brain/Plasma Ratio) | concentration at 60 min ([1]; plasma, iv, 3 mg/kg, i.v. 3 mg/kg, 60 min (plasma), read-out: Concentration in Plasma, Mean ± SEM) | concentration at 60 min ([1]; plasma, po, 10 mg/kg, p.o. 10 mg/kg, 60 min (plasma), read-out: Concentration in Plasma, Mean ± SEM) | IC50 [2] | IC50 [3] | IC50 [4] | IC50 [5] | IC50 [6] | IC50 [7] | IC50 [8] | IC50 [9] | IC50 [10] | N87 Tumor Growth Inhibition TGI [11] | A431 Tumor Growth Inhibition TGI [12]
1 | Nc1ncnc(Nc2ccc(OCc3ccccc3)c(Cl)c2)c1/C=N/OCCN1CCOCC1 [Cpd 78] | 307 ± 55 ng/g | 46.1 ± 17.4 ng/g | 51.2 ± 13.7 ng/g | 2.5 | 1.2 | 124 ± 5.5 ng/mL | 73.6 ± 16.4 ng/mL | 60 nM | 60 nM | 200 nM | 200 nM | 100000 nM | 100000 nM | 800 nM | 19600 nM | 20 nM | – | –
2 | Nc1ncnc(Nc2ccc(OCc3ccccc3)c(Cl)c2)c1/C=N/OCCN1CCCCC1 [Cpd 95, (5E)-4-amino-6-(4-benzyloxy-3-chloro-phenylamino)-pyrimidine-5-carbaldehyde O-(2-piperidin-1-yl-ethyl)-oxime] | – | – | – | – | – | – | – | 10000 nM | 200 nM | 10000 nM | 1100 nM | 2400 nM | 1000 nM | 100000 nM | 12100 nM | 50 nM | – | –
3 | Nc1ncnc(Nc2ccc3c(cnn3Cc3cccc(F)c3)c2)c1/C=N/OCCN1CCCCC1 [Cpd 96, (5E)-4-amino-6-[1-(3-fluoro-benzyl)-1H-indazol-5-ylamino]-pyrimidine-5-carbaldehyde O-(2-piperidin-1-yl-ethyl)-oxime] | – | – | – | – | – | – | – | 200 nM | 100 nM | 400 nM | 200 nM | 15300 nM | 2100 nM | 800 nM | 14700 nM | 60 nM | – | –
4 | Nc1ncnc(Nc2ccc(OCc3ccccc3)c(Cl)c2)c1/C=N/OCCCN1CCOCC1 [Cpd 112, (5E)-4-amino-6-(4-benzyloxy-3-chloro-phenylamino)-pyrimidine-5-carbaldehyde O-(3-morpholin-4-yl-propyl)-oxime] | – | – | – | – | – | – | – | – | – | – | – | – | – | – | – | 20 nM | 48.6% | 33%
5 | Nc1ncnc(Nc2ccc(OCc3ccccc3)c(Cl)c2)c1/C=N/OCc1ccccn1 [Cpd 114, (5E)-4-amino-6-(4-benzyloxy-3-chloro-phenylamino)-pyrimidine-5-carbaldehyde O-pyridin-2-ylmethyl-oxime] | – | – | – | – | – | – | – | – | – | – | – | – | – | – | – | – | 47% | −3%
6 | COCCNCCCO/N=C/c1c(N)ncnc1Nc1ccc(OCc2ccccc2)c(Cl)c1 [Cpd 115, (5E)-4-amino-6-(4-benzyloxy-3-chloro-phenylamino)-pyrimidine-5-carbaldehyde O-[3-(2-methoxy-ethylamino)-propyl]-oxime] | – | – | – | – | – | – | – | – | – | – | – | – | – | – | – | – | 50.2% | 4%

Reference: patent publication US8153791B2, “Substituted pyrimidinyl oxime kinase inhibitors” (Janssen Pharmaceutica N.V., priority 2005, dated 2012)
